Assay results reported in US8632759B2, “Hair restorer” (Cosmo Oil Co., Ltd., priority 2004, dated 2014).

Test system: C3H/HeNCrJ mice
Test: Hair growth test on clipped backs of mice
Format: in vivo
Conditions: C3H/HeNCrJ mice in telogen phase, n=3; 0.2 ml sprayed on clipped back once a day; hair measured under microscope
Description: In Table 1,5-aminolevulinic acid (sometimes abbreviated as ALA) of the present invention and iron compounds, and the blend compositions of them and urea are shown in wt %. For 1 g of ALA, 0.4 g of ferrous citrate, 2.81 g of iron lactate, 5.7 g of iron sodium diethylenetriaminepentaacetate, 5.6 g of iron ammonium diethylenetriaminepentaacetate, and 0.36 g of ferrous gluconate were blended respectively. The body hair on the backs of C3H/HeNCrJ mice (n=3 in each group), which were in telogen phase of hair growth cycle, was clipped with a hair clipper, and each suspension shown in Table 1 was applied to the back once a day, in an amount of 0.2 ml, by spraying uniformly.
In addition, photographs of the backs of mice on which the sample No. 8 of the present invention, 5% minoxidil (positive control), and distilled water (negative control) were respectively applied were taken 20 days after the application.

SMILES	Hair Length after 2 weeks
NCC(=O)CCC(=O)O [Control, 5-aminolevulinic acid]	1.08 mm
Nc1cc(N2CCCCC2)nc(N)[n+]1[O-] [5% Minoxidil, 6-(1-piperidinyl)-2,4-pyrimidinediamine-3-oxide]	1.70 mm
